{"source": "a melting point compilation (Tetko et al.; mined from patent text by program, amines drawn as free bases though some values may be those of a salt)", "data": [{"units": {"melting point": "°C"}, "values": [{"molecule": "O=C1Nc2ccc(I)cc2C1=NNC(=O)c1ccc(OCc2ccccc2)cc1", "melting point": 298}, {"molecule": "BrCc1noc2cc3c(cc12)CCC3", "melting point": "69 to 71"}, {"molecule": "CCCc1nc(C)cc(=O)n1CCOc1ccc(CC2SC(=O)NC2=O)cc1", "note": "(centres undefined)", "melting point": "144 to 146"}, {"molecule": "CN1C(=O)CN=C(c2ccccc2)c2c1cc(Cl)c(N)c2Cl", "melting point": 228}, {"molecule": "CC(=O)N1N=C(c2ccc(N)cc2)c2cc3c(cc2C=C1C)OCO3", "melting point": "175 to 180"}, {"molecule": "Cc1ccc([N+](=O)[O-])c(C=C(C(=O)O)C(=O)O)c1", "melting point": "180 to 182"}, {"molecule": "O=C(O)c1cc(Br)nn1-c1ncccc1Cl", "melting point": "200 to 201"}, {"molecule": "CN1CCC(O)(c2cccc3ccc(N(Cc4ccccc4)Cc4ccccc4)cc23)CC1", "melting point": "173 to 174"}, {"molecule": "CNS(=O)(=O)N1CCNC1=O", "melting point": 184}, {"molecule": "CCOC(=O)Cc1ccc(NC(=O)C(CO)NS(=O)(=O)c2ccc(Br)cc2)cc1", "note": "(racemic)", "melting point": "149 to 150"}, {"molecule": "CCCc1nc2c(N)nc(C)c(C)c2n1CCCCN(O)C(=O)c1ccccc1", "melting point": "132 to 134"}, {"molecule": "Fc1cc(I)ccc1Nc1c(-c2nnc(NCCN3CCOCC3)o2)ccc(F)c1F", "melting point": "77 to 80"}, {"molecule": "COC(=O)c1nc(-c2ccc(Cl)c(OC)c2F)nc(O)c1Cl", "melting point": "215 to 217"}, {"molecule": "O=C1c2c(ccc3c2OCCO3)S(=O)(=O)N1CCCCO", "melting point": "119 to 122"}, {"molecule": "Cc1cc(C#Cc2ccccc2)nc(Oc2cc(C(F)(F)F)nn2C)c1", "melting point": 56}, {"molecule": "Cc1cc(CC(=O)O)ccc1NC(=O)Nc1ccccc1C(F)(F)F", "melting point": "262 to 263"}, {"molecule": "CCCOc1nn(-c2ccc(C(F)(F)F)cn2)cc1CCCOc1ccc(CCC(=O)O)c(OCC)c1", "melting point": "112 to 113"}, {"molecule": "CCCCOC1C=CC(=O)N1S(=O)(=O)c1ccccn1", "note": "(centres undefined)", "melting point": "74 to 75"}, {"molecule": "CNc1cc(NC)cc(C(O)CS(C)(=O)=O)c1", "note": "(centres undefined)", "melting point": 106}, {"molecule": "O=C1CC[C@@H](C(=O)N[C@@H](CSSC[C@H](NC(=O)[C@@H]2CCC(=O)N2)C(=O)O)C(=O)O)N1", "melting point": "191 to 193"}, {"molecule": "COCCOc1ccc(/C=C/C(=O)O)c(Oc2ncc(Br)s2)c1", "melting point": "144 to 145"}, {"molecule": "Cn1nc(C(F)(F)F)cc1-c1ccc(CN2CCN(c3ccc(OCC4CCn5cc([N+](=O)[O-])nc5O4)cc3)CC2)s1", "note": "(centres undefined)", "melting point": "180 to 181"}, {"molecule": "Cn1c(=O)c2cc(C(=O)O)cn2c2ccccc21", "melting point": "330 to 333"}, {"molecule": "CCOc1c(Nc2ccc3[nH]cnc3c2)c(=O)c1=O", "melting point": "243 to 244"}, {"molecule": "NC(=O)N1CCCN(NC(=O)OCc2ccccc2)C1=O", "melting point": 136}, {"molecule": "CC(C)(C)c1cc(CO)c(O)c(CO)c1", "melting point": "68 to 73"}, {"molecule": "CC1(C)CCC(C)(C)c2cc(C(=O)Nc3ccc(I)cc3)ccc21", "melting point": 224}, {"molecule": "CON=C(C(=S)OC)c1ccccc1COc1ccccc1Cl", "melting point": "58 to 60"}, {"molecule": "O=C(O)c1cc(NCc2c(F)c(F)c(C(F)(F)F)c(F)c2F)ccc1Cl", "melting point": 58}, {"molecule": "CC1(C)[C@@H](CNS(C)(=O)=O)CC[C@@]1(C)NCC(=O)N1C[C@@H](F)C[C@H]1C#N", "melting point": "157 to 160"}, {"molecule": "O=C(O)CCC(=NOCc1ccc(OCc2cn3ccccc3n2)cc1)c1ccccc1", "melting point": "180 to 182"}, {"molecule": "Cc1ccc(-n2nc3c4cc(Br)ccc4[nH]c(=O)n3c2=O)cc1", "melting point": 369}, {"molecule": "O=C(NCC12CC3CC(CC(C3)C1)C2)c1c(Cl)ccc2nc(N3CCC[C@@H]3C(=O)O)ccc12", "melting point": "157 to 160"}, {"molecule": "O=c1c2ccc(O)cc2oc2c([N+](=O)[O-])ccc(Cl)c12", "melting point": "179 to 182"}, {"molecule": "CCc1c(-c2ccc(OCc3ccccc3)cc2)cn2cccc(OCc3ccccc3)c12", "melting point": "104 to 105"}, {"molecule": "CN1CCC(c2nc3cccnc3[nH]2)CC1", "melting point": "224 to 226"}, {"molecule": "NS(=O)(=O)c1ccc(-c2ccccc2-c2ccc(F)cc2)cc1", "melting point": "187 to 188"}, {"molecule": "C=Cc1ccc(CC(N)=O)nc1", "melting point": "120 to 121"}, {"molecule": "COCn1cc(-c2coc3ccc(-c4nnc(C)o4)cc23)cn1", "melting point": "128 to 129"}, {"molecule": "O=C(O)Cc1cc(C2CC2)ccc1Nc1ccc(-c2ccc(F)cc2)cc1F", "melting point": "182 to 183"}, {"molecule": "CN1CCN(c2ccc(S(=O)(=O)Oc3cc(Cl)c(Cl)cc3Cl)cc2)C1=O", "melting point": "181 to 183"}, {"molecule": "FC(F)(F)c1ccc2c(c1)N(CC1CN3CCC1CC3)c1ccccc1S2", "note": "(centres undefined)", "melting point": 150}, {"molecule": "CN1CCSC1=NC(=Nc1ccccc1)N1CCCCC1", "melting point": "122 to 124"}, {"molecule": "CCOc1ccc2c(c1C=NO)OCO2", "melting point": "161 to 164"}, {"molecule": "Fc1cc(Cl)ccc1-n1nn[nH]c1=S", "melting point": 128}, {"molecule": "N#Cc1ccc(N2CCN(c3ccnc(Cl)n3)CC2)cc1", "melting point": "216 to 218"}, {"molecule": "CC(CCC(=O)O)C1CCC2C3CCC4CC(OC=O)CCC4(C)C3CC(OC=O)C12C", "note": "(centres undefined)", "melting point": "123 to 125"}, {"molecule": "Cc1ccc2c(c1)N(C(=O)NCCN1CCC(CCCN(C(C)C)C(C)C)CC1)c1ncccc1NC2=O", "melting point": "160 to 162"}, {"molecule": "COc1ccc2[nH]cc(CN(C)C)c2c1Cl", "melting point": "145 to 149"}, {"molecule": "O=C1CCCC(=O)C1C(=O)c1ccc(OC(F)F)cc1Cl", "melting point": "68 to 72"}, {"molecule": "O=S(c1cc(Cl)c(-n2cccn2)c(Cl)c1)C(F)(F)F", "note": "(centres undefined)", "melting point": "86 to 91"}, {"molecule": "CCOC(=O)c1cc(Nc2cccc(Cl)c2)c(C(=O)OCC)cc1Nc1cccc(Cl)c1", "melting point": "145 to 146"}, {"molecule": "CC(C)(C)c1ccc(COc2cc(C(O)C#Cc3ccc(C(=O)O)cc3)cc3c2C(C)(C)CCC3(C)C)cc1", "note": "(centres undefined)", "melting point": 254}, {"molecule": "NC(=O)N(O)CCNC(=O)c1ccc(Oc2ccccc2)o1", "melting point": "160 to 163"}, {"molecule": "Cc1ccc(S(=O)(=O)NC(=O)OCCc2ccc(-n3c(CCCN4CCCC4=O)nc4cc(C(F)(F)F)c(Cl)cc43)cc2)cc1", "melting point": "85 to 90"}, {"molecule": "O=C1CCC(C(=O)N2CCN(CC(=O)N3CCOCC3)CC2)N1", "note": "(centres undefined)", "melting point": "167 to 169"}, {"molecule": "CN(C)C(=O)c1cc2c(nc(C3CC3)n2C)c2c1CCC(c1ccccc1)O2", "note": "(centres undefined)", "melting point": "176 to 179"}, {"molecule": "N#Cc1c([N+](=O)[O-])ccc(Cl)c1CBr", "melting point": 89}, {"molecule": "CN1CCC(OC(c2ccccc2)c2nc3ccccc3[nH]2)C1", "note": "(centres undefined)", "melting point": 53}, {"molecule": "CN(C)CCc1cc2occc2c(=O)[nH]1", "melting point": "97.5 to 98"}, {"molecule": "CN1C(=O)C2(COc3cc4c(cc32)OCCO4)c2c(C(=O)NC3CCCC3)cccc21", "note": "(centres undefined)", "melting point": "135 to 136"}, {"molecule": "CC1=C(C(=O)OC(C)C)C(c2cccc([N+](=O)[O-])c2)N(C(=O)NOCc2ccccc2)C(=O)N1", "note": "(centres undefined)", "melting point": "166 to 167"}, {"molecule": "O=C(O)CN1CCOc2ccc([N+](=O)[O-])cc2C1=O", "melting point": "110 to 120"}, {"molecule": "CCCc1c(OCCCOc2cc(OCC(=O)O)ccc2C(C)=O)ccc(C(C)=O)c1O", "melting point": "151 to 155"}, {"molecule": "CC(=O)OC1CSC(Oc2cncc(-c3ccsc3)c2)C(OC(C)=O)C1OC(C)=O", "note": "(centres undefined)", "melting point": 175}, {"molecule": "C=CCCCn1nnc(-c2ccc3[nH]c(CCCC)nc(=O)c3c2)n1", "melting point": 130}, {"molecule": "Nc1nc(-c2cc(Cl)ccc2Cl)nc(N2CC(CO)C2)n1", "melting point": "224 to 226"}, {"molecule": "COC(=O)c1nn(Cc2ccccc2)c2ccccc12", "melting point": "72 to 73"}, {"molecule": "N#Cc1ccc(CNCCO)cc1", "melting point": "< 60"}, {"molecule": "CCc1nc(NC)sc1C(=O)c1ccc(N)c([N+](=O)[O-])c1", "melting point": "210 to 215"}, {"molecule": "N=C(N)NCCC[C@H](NC(=O)c1ccccc1SSc1ccccc1C(=O)N[C@@H](CCCNC(=N)N)C(=O)O)C(=O)O", "melting point": "208 to 211"}, {"molecule": "O=C(O)CCC(=O)c1ccc(-c2ccc(Cl)cc2)o1", "melting point": "142 to 144"}, {"molecule": "CCOC(=O)c1ccc(COc2cc(O)c(C(C)=O)cc2CC)cc1O", "melting point": "145 to 146"}, {"molecule": "COc1ccc(C(=O)Oc2ccc(C(=O)O)cc2CO)cc1C12CC3CC(CC(C3)C1)C2", "melting point": "214 to 216"}, {"molecule": "COc1ccc([C@H]2Cc3c(cccc3[N+](=O)[O-])NC(=O)[C@H]2O)cc1", "note": "(relative stereo)", "melting point": "198 to 200"}, {"molecule": "CN1C(=O)CNN(c2cc(Cl)c(Oc3ccc(S(C)(=O)=O)cc3)c(Cl)c2)C1=O", "melting point": 217}, {"molecule": "Fc1c(F)c(F)c(CSc2nc3ccccc3[nH]2)c(F)c1F", "melting point": "189 to 196"}, {"molecule": "Cc1nnsc1C(=O)Nc1ccc(-n2nc(C(F)(F)F)cc2C#N)cc1", "melting point": "193 to 195"}, {"molecule": "CC(C)Oc1nc(CO)sc1C(=O)NCc1ccc(Cl)cc1Cl", "melting point": "127 to 128"}, {"molecule": "Cc1nc2c(N)nc3ccccc3c2n1CCC(=O)N1CCOCC1", "melting point": "166 to 169"}, {"molecule": "O=C(O)COc1ccc(-c2c(Cl)c(CN3C(=O)CCC3=O)nc3sc4c(c23)CCS(=O)C4)cc1", "note": "(centres undefined)", "melting point": "205 to 206"}, {"molecule": "Nc1sc2cccnc2c1N", "melting point": "204 to 209"}, {"molecule": "CS(=O)(=O)Nc1ccc(CCCC(=O)OCc2ccccc2)cc1", "melting point": "88 to 89"}, {"molecule": "COC(=O)c1nc(-c2ccc(O)nc2)cc(N)c1Cl", "melting point": "251 to 252"}, {"molecule": "NC(=O)CNC(=O)c1cccc(-c2ccc3c(c2)C(Oc2ccc(Cl)cc2Cl)CC3)c1", "note": "(centres undefined)", "melting point": "180 to 181"}, {"molecule": "O=C(Cn1c(-c2ccc(Br)cc2)nc2cccnc21)N1CCCCC1", "melting point": "175 to 176"}, {"molecule": "Cc1ccc(-c2ccc3c(c2)C=C(C(=O)Nc2ccc(CS(=O)(=O)C4CCCCC4)cc2)CCO3)cc1", "melting point": "250 to 251"}, {"molecule": "N#Cc1cnn2c(C(F)(F)F)cc(-c3ccc(C(F)(F)F)cc3)nc12", "melting point": 176}, {"molecule": "COC(=O)c1nc(C)n2c1CN=C(c1ccccc1Cl)c1cc(Cl)ccc1-2", "melting point": "225 to 227"}, {"molecule": "Cc1cc(C)nc(-c2ccc(CN3CCN(c4ccc(O)cc4)CC3)cc2)n1", "melting point": "165 to 167"}, {"molecule": "CC1(C)CC(N2C(=O)c3ccc(C(=O)OCC(O)c4ccccc4)cc3C2=O)CC(C)(C)N1", "note": "(centres undefined)", "melting point": "144 to 146"}, {"molecule": "CC(=O)C1=Cc2cc(Cl)cc(C)c2OC1", "melting point": "78 to 79"}, {"molecule": "COc1ccc(-c2[nH]nc3c2C(=O)c2c(NC(=O)Cc4ccc(Cl)cc4Cl)cccc2-3)cc1", "melting point": 286}, {"molecule": "O=C(CCCNC(=O)c1ccc(OC(F)(F)F)cc1)CCCNC(=O)c1ccc(OC(F)(F)F)cc1", "melting point": "151 to 152"}, {"molecule": "O=C(NCc1cn(-c2ccc(N3CCSCC3)c(F)c2)nn1)c1cnccn1", "melting point": "216 to 218"}, {"molecule": "O=C(/C=C/c1ccc(O)cc1Cl)CC(=O)/C=C/c1ccc(O)cc1Cl", "melting point": "248 to 254"}, {"molecule": "N#CC1(Nc2ccccc2)CCN(C2c3ccccc3-c3ccccc32)CC1", "melting point": 165}, {"molecule": "CN1CCN(C2(CNC(=O)c3ccc(Cl)c(Cl)c3)CCCCC2)CC1", "melting point": "143 to 146"}, {"molecule": "c1ccc(N=c2sc3ccccc3s2)cc1", "melting point": "67 to 68"}]}]}
